From patent US20060116407A1, “Amide derivatives” (priority 2004, published 2006)

Assays:
[1] = target: T1, HER-2 (Homo sapiens, UniProt P04626); assay: Inhibition of HER-2 phosphorylation in Calu-3 tumor cell line; type: cell-based; conditions: Calu-3 cells, compound 1 μM, 16 h, pY 1248 in HER-2, percentage of DMSO control; read-out: Percent inhibition of HER2-phosphorylation (compound concentration 1 μM)
T1 construct: endogenous in cells; host or cells: Calu-3 (ATCC HTB-55)
Experimental: Inhibition of HER-2 Phosphorylation in Calu-3 Tumor Cell Line
2×10^5 Calu-3 (ATTC HTB-55) cells per well were plated in a 12-well plate. After 4 days cells were starved for 16 h in Dulbecco's Modified Eagle Medium (DMEM)/0.5% Fetal Calf Serum (FCS)/1% Glutamine. During this 16 h period cells were incubated with a solution of the test compound in dimethylsulfoxide(DMSO), so that the final concentration of the compound is 1 μM and the final volume of DMSO is 0.5%. Afterwards cells were lysed in lyses buffer containing 1% Triton®X-100, 10% Glycerol, 1 mM Ethylene glycol-bis(2-aminoethylether)-N,N,N′,N′-tetraacetic acid (EGTA), 1.5 mM MgCl2, 150 mM NaCl, 50 mM 4-(2-hydroxyethyl)-1-piperazineethanesulfonic acid (HEPES) buffer pH 7.5, 1 mM Phenylmethylsulfonyl fluoride (PMSF), 10 ∥g/mL Aprotinin and […] Orthovanadate. Cell lysates were analyzed on a Sodium Dodecyl Sulfate Polyacrylamide Gel Electrophoresis (SDS PAGE) and after transfer to a nitrocellulose membrane detected with an antibody specifically recognizing the pY 1248 in HER-2. Inhibition of HER-2 phosphorylation is calculated as percentage of the control, which is treated with DMSO only.

[2] = system: HEK293 cells; assay: Viability assay of HEK293 cells (CellTiter-Glo); type: cell-based; conditions: Homo sapiens, 168 h, 7 days, 3 μM to 0.00015 μM, luminescence
Experimental: Viability Assay of HEK293 Cells
A viability assay was performed using the CellTiter-Glo™ Luminescent Cell Viability Assay (see Promega Corporation's Technical Publication No. 288, pp. 1-11 [revised 2.04] which is hereby incorporated by reference in its entirety). This assay is a homogeneous method of determining the number of viable cells in culture based on quantitation of the ATP present, which signals the presence of metabolically active cells. The assay is designed for use with multiwell formats, making it ideal for automated high-throughput screening (HTS), cell proliferation and cytotoxicity assays. The homogeneous assay procedure involves adding a single reagent (containing luciferase, luciferan substrate, and buffer) directly to cells cultured in serum-supplemented medium. Cell washing, removal of medium and multiple pipetting steps are not required. The system detects as few as 15 cells/well in a 384-well format in 10 minutes after adding reagent and mixing.
The homogeneous “add-mix-measure” format results in cell lysis and generation of a luminescent signal proportional to the amount of ATP present. The amount of ATP is directly proportional to the number of cells present in culture. The above-referenced assay generates a “glow-type” luminescent signal, produced by the luciferase reaction, which has a half-life generally greater than five hours, depending on cell type and medium used. The extended half-life eliminates the need to use reagent injectors and provides flexibility for continuous or batch mode processing of multiple plates. The unique homogeneous format avoids errors that may be introduced by other ATP measurement methods that require multiple steps.
HEK293 cells (human embryonic kidney cell line transformed by Adenovirus 5 fragments, ATCC-No. CRL 1573) were cultivated in Dulbecco's Modified Eagle Medium (DMEM) (1×) liquid (high glucose) (which includes L-Alanyl-L-Glutamine [a stabilized a form of L-Glutamine], 4500 mg/L glucose, and 110 mg/L sodium pyruvate) from Invitrogen Corporation (Invitrogen Catalog Number 31966-021 [now 10569-010] which is hereby incorporated by reference in its entirety), 5% Fetal Calf Serum (FCS, Sigma Cat-No. F4135 (FBS) which is hereby incorporated by reference in its entirety), and 100 Units/ml penicillin/100 μg/ml streptomycin(=Pen/Strep from Invitrogen Cat. No. 15140 which is hereby incorporated by reference in its entirety). For the assay the cells were seeded in 384 well plates, 5000 cells per well, in the same medium. The next day the test compounds were added in various concentrations ranging from 3 μM to 0.00015 μM (10 concentrations, 1:3 diluted). After 7 days the above viability assay was performed in accordance with the following steps: • Step 1: The cell-plate was equilibrated to room temperature for approximately 30 minutes and than the assay reagent was added. • Step 2: The contents were carefully mixed for 15 minutes to induce cell lysis. • Step 3: After 45 minutes the luminescent signal was measured in Victor 2, (scanning multiwell spectrophotometer, Wallac). Details: 1st Day: • Medium: Dulbecco's Modified Eagle Medium (DMEM) (1×) liquid (high glucose) (which includes L-Alanyl-L-Glutamine [a stabilized a form/source of L-Glutamine], 4500 mg/L glucose, and 110 mg/L sodium pyruvate) from Invitrogen Corporation (Invitrogen Catalog Number 31966-021 [now 10569-010]), 5% Fetal Calf Serum (FCS, Sigma Cat-No. F4135 (FBS)), and Pen/Strep (Invitrogen Cat. No. 15140). • HEK293 (ATCC-No. CRL 1573): 5000 cells in 60 μl per well of 384 well plate. (Greiner 781098, white plates) • Incubate 24 h at 37° C., 5% CO2 2nd Day: Induction (Substance Testing):
In general the dilution steeps are 1:3 a) Add 8 μl of 10 mM stock solution of compound to 72 μl DMSO b) dilute 9×1:3 (always 30 μl to 60 μl DMSO) in this DMSO dilution row (results in 10 wells with concentrations from 1000 μM to 0.06 μM) c) dilute each concentration 1: 4.8 (10 μl compound dilution to 38 μl medium) […]

T1 sequence (P04626 23-1255): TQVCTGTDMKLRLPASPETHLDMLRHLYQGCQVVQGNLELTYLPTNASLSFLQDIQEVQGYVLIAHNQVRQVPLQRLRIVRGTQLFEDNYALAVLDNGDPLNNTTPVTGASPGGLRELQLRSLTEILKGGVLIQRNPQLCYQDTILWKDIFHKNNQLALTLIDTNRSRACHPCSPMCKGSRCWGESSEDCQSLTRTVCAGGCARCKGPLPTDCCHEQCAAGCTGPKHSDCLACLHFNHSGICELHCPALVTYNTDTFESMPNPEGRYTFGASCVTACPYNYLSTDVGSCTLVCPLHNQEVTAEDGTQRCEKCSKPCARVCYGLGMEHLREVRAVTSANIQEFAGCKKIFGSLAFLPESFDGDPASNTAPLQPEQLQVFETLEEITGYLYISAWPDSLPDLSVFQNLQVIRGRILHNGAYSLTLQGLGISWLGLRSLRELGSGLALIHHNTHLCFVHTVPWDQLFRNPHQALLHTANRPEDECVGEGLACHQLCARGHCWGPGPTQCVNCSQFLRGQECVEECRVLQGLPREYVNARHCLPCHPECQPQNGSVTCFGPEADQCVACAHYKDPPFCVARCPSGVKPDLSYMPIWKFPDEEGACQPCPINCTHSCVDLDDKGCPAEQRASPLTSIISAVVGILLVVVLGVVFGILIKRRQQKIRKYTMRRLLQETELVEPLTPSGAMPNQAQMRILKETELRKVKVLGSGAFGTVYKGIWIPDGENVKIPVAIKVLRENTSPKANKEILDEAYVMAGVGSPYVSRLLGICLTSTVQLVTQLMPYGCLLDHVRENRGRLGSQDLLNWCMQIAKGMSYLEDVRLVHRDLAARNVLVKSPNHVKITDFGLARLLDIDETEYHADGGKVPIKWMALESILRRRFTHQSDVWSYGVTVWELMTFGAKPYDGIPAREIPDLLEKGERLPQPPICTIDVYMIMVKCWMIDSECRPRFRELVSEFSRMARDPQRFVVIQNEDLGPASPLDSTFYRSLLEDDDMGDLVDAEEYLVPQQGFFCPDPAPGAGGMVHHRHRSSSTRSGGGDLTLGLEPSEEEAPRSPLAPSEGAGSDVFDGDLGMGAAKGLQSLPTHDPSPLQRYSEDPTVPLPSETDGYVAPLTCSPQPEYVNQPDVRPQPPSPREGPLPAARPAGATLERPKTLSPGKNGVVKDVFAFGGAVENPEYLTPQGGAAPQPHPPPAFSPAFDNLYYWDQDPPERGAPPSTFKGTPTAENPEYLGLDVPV

Compound | inhibition at 1 µM [1] [%] | IC50 [2] [nM]
O=C(Nc1ccc(S(F)(F)(F)(F)F)cc1)c1nc(COc2ccc(CCCCn3ccnn3)cc2)cs1 [Example 40, 4-[4-(4-[1,2,3]Triazol-1-yl-butyl)-phenoxymethyl]-thiazole-2-carboxylic acid (4-pentafluorosulfanyl-phenyl)-amide] | 70 to 80 | 5 to 500
O=C(Nc1ccc(F)cc1)c1coc(COc2ccc(CCCCn3ccnn3)cc2)n1 [Example 31, 2-[4-(4-[1,2,3]Triazol-1-yl-butyl)-phenoxymethyl]-oxazole-4-carboxylic acid (4-fluoro-phenyl)-amide] | 55 to 70 | 500 to 3000
O=C(Nc1ccc2c(c1)OC(F)(F)O2)c1coc(COc2ccc(CCCCn3ccnn3)cc2)n1 [Example 9, 2-[4-(4-[1,2,3]Triazol-1-yl-butyl)-phenoxymethyl]-oxazole-4-carboxylic acid (2,2-difluoro-benzo [1,3]dioxol-5-yl)-amide] | 55 to 70 | 116
